According to patent US20120141384A1, “ANTIBACTERIAL CONJUGATED BORONIC ACIDS AND PHARMACEUTICAL COMPOSITIONS THEREOF” (priority 2008, published 2012):

System: Pseudomonas aeruginosa (ATCC No. 9027)
Assay: Antimicrobial efficacy (challenge) test, plate count
Type: cell-based
Conditions: for No. of Surviving Microorganisms CFU/g: 25° C., initial contamination 4.3 × 10^6 CFU/g; for antimicrobial effect in words: following one day of exposure
Description: 2-FBP was obtained from Sigma Aldrich. Test Procedure: The test consisted of challenging the test solutions with specified microorganisms, storing the inoculated preparations at a prescribed temperature, removing the inoculated samples at specified intervals of time and counting the number of viable organisms in the withdrawn samples using a plate count procedure. The technical details were as follows: • The test was conducted in 20 g samples. • Each sample was separately inoculated by one of the test organisms. • The inoculated containers were incubated at 25° C. together with an uninoculated sample. • The inoculated container with P. acnes was incubated under anaerobic conditions at the same temperature. • The culture media for P. acnes was Brain Heart Infusion Agar instead of Tryptic Soy Agar. Formulations were challenged by introducing the following microorganisms: Pseudomonas aeruginosa (ATCC No. 9027) Counting of microorganisms in the inoculated samples was performed 1, 2 and 7 days following inoculation. The number of colony-forming units (cfu/g) determined at each incubation time point was compared to the number of cfu/g measured in non-inoculated control samples of FPB solutions. Antimicrobial effectiveness results, expressed as colony forming units of surviving microorganisms in the FPB solutions (cfu/g), are detailed in Tables 1-3.

## O=Cc1ccccc1B(O)O [FPB, 2-Formylphenyl boronic acid]
10 mM FPB aqueous solution, 1 week
  No. of Surviving Microorganisms CFU/g: <10 CFU/g
10 mM FPB aqueous solution, 1 days
  No. of Surviving Microorganisms CFU/g: 4.3 × 10^4 CFU/g
10 mM FPB aqueous solution, 2 days
  No. of Surviving Microorganisms CFU/g: 5.0 × 10^1 CFU/g
20 mM FPB aqueous solution, 1 week
  No. of Surviving Microorganisms CFU/g: <10 CFU/g
20 mM FPB aqueous solution, 1 days
  No. of Surviving Microorganisms CFU/g: <10 CFU/g
20 mM FPB aqueous solution, 2 days
  No. of Surviving Microorganisms CFU/g: <10 CFU/g
Solution 1 (10 mM FPB), within two days of exposure
  log reduction of the count from the initial load: 2.0 log
Solution 2 (20 mM FBA)
  antimicrobial effect in words: completely eradicated
Solution 3 (40 mM FBA)
  antimicrobial effect in words: completely eradicated
solutions, concentrations of 10 mM, 20 mM and 40 mM
  effectiveness (conclusion): effective
